What was measured:
Details in all cases: 0.1 µM; binder
MRCKA = MRCKA (Homo sapiens, UniProt Q5VT25)
JNK1 = JNK1 (Homo sapiens, UniProt P45983)
STK16 = STK16 (Homo sapiens, UniProt O75716)
PCTK3 = PCTK3 (Homo sapiens, UniProt Q07002)
SRPK3 = SRPK3 (Homo sapiens, UniProt Q9UPE1)
HIPK2 = HIPK2 (Homo sapiens, UniProt Q9H2X6)
MAP3K4 = MAP3K4 (Homo sapiens, UniProt Q9Y6R4)
PDGFRB = PDGFRB (Homo sapiens, UniProt P09619)
PIK3CA(E545K) = PIK3CA(E545K) (Homo sapiens, UniProt P42336, E545K)
LRRK2(G2019S) = LRRK2(G2019S) (Homo sapiens, UniProt Q5S007, G2019S)
EPHA3 = EPHA3 (Homo sapiens, UniProt P29320)
FLT3(R834Q) = FLT3(R834Q) (Homo sapiens, UniProt P36888, R834Q)
YANK1 = YANK1 (Homo sapiens, UniProt Q8WU08)
FYN = FYN (Homo sapiens, UniProt P06241)
PRKR = PRKR (Homo sapiens, UniProt P19525)
ALK = ALK (Homo sapiens, UniProt Q9UM73)
DMPK2 = DMPK2 (Homo sapiens, UniProt Q6DT37)
SIK2 = SIK2 (Homo sapiens, UniProt Q9H0K1)
PFTAIRE2 = PFTAIRE2 (Homo sapiens, UniProt Q96Q40)
DAPK1 = DAPK1 (Homo sapiens, UniProt P53355)
FLT3(D835H) = FLT3(D835H) (Homo sapiens, UniProt P36888, D835H)
EGFR(T790M) = EGFR(T790M) (Homo sapiens, UniProt P00533, T790M)
PIK3CA(H1047L) = PIK3CA(H1047L) (Homo sapiens, UniProt P42336, H1047L)
BMPR2 = BMPR2 (Homo sapiens, UniProt Q13873)
TAOK3 = TAOK3 (Homo sapiens, UniProt Q9H2K8)
ERK1 = ERK1 (Homo sapiens, UniProt P27361)
RIPK4 = RIPK4 (Homo sapiens, UniProt P57078)
MAPKAPK5 = MAPKAPK5 (Homo sapiens, UniProt Q8IW41)
PKAC-alpha = PKAC-alpha (Homo sapiens, UniProt P17612)
FGFR1 = FGFR1 (Homo sapiens, UniProt P11362)
STK35 = STK35 (Homo sapiens, UniProt Q8TDR2)

Sequence of STK16 (O75716 whole entry): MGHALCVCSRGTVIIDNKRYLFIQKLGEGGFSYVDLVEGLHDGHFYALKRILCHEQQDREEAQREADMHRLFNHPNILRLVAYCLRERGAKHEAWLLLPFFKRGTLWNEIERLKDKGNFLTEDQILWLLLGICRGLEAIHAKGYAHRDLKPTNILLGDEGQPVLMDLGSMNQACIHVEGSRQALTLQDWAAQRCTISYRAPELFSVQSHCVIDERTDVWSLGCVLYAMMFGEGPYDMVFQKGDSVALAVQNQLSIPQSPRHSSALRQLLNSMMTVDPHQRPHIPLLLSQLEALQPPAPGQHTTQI
Sequence of PFTAIRE2 (Q96Q40 whole entry): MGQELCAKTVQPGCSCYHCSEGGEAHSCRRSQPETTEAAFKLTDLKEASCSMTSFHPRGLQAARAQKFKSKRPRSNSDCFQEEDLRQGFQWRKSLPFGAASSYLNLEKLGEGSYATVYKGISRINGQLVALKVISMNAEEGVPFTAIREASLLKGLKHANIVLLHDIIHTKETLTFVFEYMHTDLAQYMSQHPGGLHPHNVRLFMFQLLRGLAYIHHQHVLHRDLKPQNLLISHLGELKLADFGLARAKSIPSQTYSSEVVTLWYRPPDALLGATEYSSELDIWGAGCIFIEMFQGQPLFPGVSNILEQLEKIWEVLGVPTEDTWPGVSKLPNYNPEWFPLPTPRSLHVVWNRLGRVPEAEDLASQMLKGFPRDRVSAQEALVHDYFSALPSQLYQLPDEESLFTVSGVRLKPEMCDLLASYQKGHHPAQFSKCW
Sequence of YANK1 (Q8WU08 whole entry): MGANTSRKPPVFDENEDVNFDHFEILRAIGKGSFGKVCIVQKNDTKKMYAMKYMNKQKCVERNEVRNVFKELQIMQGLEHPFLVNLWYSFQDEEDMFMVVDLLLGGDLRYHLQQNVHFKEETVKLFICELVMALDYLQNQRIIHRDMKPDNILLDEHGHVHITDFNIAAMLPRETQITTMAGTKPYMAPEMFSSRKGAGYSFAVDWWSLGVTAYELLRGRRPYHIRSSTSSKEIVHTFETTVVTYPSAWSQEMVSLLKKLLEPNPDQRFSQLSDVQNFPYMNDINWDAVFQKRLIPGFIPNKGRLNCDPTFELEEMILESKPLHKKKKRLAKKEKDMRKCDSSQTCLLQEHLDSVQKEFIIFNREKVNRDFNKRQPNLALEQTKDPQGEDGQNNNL
Sequence of PCTK3 (Q07002 whole entry): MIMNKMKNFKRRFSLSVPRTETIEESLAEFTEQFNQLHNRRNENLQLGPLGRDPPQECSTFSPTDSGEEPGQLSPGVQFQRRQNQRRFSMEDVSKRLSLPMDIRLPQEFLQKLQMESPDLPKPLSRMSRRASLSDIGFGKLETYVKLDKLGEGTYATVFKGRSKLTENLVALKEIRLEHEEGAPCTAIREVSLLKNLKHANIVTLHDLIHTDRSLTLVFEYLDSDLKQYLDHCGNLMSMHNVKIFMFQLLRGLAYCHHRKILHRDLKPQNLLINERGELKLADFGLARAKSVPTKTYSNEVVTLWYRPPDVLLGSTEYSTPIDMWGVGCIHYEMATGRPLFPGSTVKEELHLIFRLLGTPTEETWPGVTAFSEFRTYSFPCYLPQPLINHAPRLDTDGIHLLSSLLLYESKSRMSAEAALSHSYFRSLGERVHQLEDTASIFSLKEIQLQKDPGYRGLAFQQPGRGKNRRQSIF
Sequence of HIPK2 (Q9H2X6 whole entry): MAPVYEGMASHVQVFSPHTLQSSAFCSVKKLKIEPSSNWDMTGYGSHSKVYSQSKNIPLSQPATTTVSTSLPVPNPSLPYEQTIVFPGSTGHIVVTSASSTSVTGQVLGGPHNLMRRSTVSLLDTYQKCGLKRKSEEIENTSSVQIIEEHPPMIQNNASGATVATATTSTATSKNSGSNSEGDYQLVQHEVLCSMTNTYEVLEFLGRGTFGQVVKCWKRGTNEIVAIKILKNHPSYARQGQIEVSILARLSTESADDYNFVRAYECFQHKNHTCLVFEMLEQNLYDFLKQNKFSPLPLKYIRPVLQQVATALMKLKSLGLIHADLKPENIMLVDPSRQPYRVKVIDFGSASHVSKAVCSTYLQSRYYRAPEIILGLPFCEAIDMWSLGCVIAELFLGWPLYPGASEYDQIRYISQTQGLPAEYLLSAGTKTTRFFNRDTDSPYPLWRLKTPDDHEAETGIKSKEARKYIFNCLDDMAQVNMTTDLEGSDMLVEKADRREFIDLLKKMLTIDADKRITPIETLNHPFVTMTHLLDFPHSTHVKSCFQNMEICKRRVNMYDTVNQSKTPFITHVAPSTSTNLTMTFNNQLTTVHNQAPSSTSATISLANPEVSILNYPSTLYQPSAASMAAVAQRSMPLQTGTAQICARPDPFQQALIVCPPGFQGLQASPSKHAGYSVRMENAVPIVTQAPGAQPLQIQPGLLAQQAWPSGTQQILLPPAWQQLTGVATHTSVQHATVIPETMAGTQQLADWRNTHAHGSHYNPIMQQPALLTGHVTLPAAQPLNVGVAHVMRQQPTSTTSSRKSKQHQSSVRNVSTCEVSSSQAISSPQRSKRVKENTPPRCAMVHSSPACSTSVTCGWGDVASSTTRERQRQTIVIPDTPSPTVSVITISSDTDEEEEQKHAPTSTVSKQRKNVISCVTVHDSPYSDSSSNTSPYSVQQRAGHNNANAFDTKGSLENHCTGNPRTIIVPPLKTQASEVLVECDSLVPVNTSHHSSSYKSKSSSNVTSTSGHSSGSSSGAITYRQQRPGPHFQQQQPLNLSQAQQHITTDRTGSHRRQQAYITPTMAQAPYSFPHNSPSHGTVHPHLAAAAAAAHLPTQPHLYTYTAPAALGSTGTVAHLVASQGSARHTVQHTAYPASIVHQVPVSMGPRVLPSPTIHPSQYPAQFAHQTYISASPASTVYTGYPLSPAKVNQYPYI
Sequence of PRKR (P19525 whole entry): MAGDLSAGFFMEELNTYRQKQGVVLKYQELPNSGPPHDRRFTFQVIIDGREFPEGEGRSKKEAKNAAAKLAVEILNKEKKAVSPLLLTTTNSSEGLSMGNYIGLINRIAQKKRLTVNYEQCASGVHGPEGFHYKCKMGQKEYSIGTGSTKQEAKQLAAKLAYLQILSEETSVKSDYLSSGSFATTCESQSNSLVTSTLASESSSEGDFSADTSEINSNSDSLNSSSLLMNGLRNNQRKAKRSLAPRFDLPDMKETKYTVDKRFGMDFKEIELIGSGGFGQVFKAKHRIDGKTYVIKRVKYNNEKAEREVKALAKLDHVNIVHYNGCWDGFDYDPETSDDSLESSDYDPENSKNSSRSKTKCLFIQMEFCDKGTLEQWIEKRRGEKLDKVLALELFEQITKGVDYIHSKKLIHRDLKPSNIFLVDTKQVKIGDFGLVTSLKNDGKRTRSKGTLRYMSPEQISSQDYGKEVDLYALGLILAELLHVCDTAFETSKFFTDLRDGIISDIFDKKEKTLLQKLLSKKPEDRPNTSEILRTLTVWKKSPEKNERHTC
Sequence of DMPK2 (Q6DT37 whole entry): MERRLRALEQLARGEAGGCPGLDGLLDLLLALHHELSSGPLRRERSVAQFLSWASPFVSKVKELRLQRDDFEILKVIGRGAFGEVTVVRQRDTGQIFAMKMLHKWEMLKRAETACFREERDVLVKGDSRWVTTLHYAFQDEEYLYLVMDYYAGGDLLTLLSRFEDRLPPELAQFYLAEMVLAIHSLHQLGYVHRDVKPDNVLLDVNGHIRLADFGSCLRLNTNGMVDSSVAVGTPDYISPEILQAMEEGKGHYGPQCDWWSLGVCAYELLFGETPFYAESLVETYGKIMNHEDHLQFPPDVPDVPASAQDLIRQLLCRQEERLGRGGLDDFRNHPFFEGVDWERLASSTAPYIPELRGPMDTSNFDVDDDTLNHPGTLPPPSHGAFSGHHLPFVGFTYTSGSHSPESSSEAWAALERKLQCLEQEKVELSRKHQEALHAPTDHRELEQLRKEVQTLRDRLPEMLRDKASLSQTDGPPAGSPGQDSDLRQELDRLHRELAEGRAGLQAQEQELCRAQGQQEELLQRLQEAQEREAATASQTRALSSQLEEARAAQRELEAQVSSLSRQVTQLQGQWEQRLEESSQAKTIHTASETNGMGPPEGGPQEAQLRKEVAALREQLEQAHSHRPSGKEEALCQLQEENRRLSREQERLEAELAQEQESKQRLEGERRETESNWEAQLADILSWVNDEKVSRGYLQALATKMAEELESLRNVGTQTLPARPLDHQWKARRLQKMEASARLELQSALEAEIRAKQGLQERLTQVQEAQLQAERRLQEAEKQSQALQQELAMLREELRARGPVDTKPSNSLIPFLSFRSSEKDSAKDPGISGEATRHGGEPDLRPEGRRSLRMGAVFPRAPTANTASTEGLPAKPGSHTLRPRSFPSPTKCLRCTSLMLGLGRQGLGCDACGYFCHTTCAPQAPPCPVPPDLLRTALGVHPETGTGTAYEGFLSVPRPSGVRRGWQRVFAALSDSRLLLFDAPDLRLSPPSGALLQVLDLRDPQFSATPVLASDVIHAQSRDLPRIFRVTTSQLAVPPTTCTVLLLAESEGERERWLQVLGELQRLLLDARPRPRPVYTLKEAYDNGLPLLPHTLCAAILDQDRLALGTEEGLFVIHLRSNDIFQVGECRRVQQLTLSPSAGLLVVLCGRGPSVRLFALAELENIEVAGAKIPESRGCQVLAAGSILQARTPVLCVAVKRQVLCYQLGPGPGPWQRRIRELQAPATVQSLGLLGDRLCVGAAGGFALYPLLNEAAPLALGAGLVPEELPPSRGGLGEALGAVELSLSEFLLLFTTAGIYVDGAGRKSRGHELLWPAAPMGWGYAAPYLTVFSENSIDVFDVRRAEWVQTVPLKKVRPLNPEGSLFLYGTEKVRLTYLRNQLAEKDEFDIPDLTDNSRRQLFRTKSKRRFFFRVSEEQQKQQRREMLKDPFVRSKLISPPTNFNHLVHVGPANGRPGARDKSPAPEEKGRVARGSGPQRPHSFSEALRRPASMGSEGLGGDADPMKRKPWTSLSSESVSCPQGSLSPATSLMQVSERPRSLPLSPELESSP

In the case of `CNc1ncc2cc(-c3ccc(-c4cccc(C)n4)cc3Cl)c(=O)n(C[C@H]3OC[C@H](N)CO3)c2n1` [compound 6, G-5555], the “Percent Control” value (MRCKA) is reported as 100%, the “Percent Control” value (JNK1) is reported as 80% and the “Percent Control” value (STK16) is reported as 100%. For the same compound, the “Percent Control” value (PCTK3) was 100%, the “Percent Control” value (SRPK3) was 100% and the “Percent Control” value (HIPK2) was 100%. The “Percent Control” value (MAP3K4) was 84%, the “Percent Control” value (PDGFRB) was 97% and the “Percent Control” value (PIK3CA(E545K)) was 85%. For the same compound, the “Percent Control” value (LRRK2(G2019S)) was 100%, the “Percent Control” value (EPHA3) was 99% and the “Percent Control” value (FLT3(R834Q)) was 96%. For the same compound, the “Percent Control” value (YANK1) was 5.3%, the “Percent Control” value (FYN) was 100% and the “Percent Control” value (PRKR) was 100%. For the same compound, the “Percent Control” value (ALK) was 89%, the “Percent Control” value (DMPK2) was 89% and the “Percent Control” value (SIK2) was 6.5%. For the same compound, the “Percent Control” value (PFTAIRE2) was 100%, the “Percent Control” value (DAPK1) was 100% and the “Percent Control” value (FLT3(D835H)) was 89%. The “Percent Control” value (EGFR(T790M)) was 100%, the “Percent Control” value (PIK3CA(H1047L)) was 100% and the “Percent Control” value (BMPR2) was 100%. The “Percent Control” value (TAOK3) was 100%, the “Percent Control” value (ERK1) was 100% and the “Percent Control” value (RIPK4) was 97%. The “Percent Control” value (MAPKAPK5) was 100%, the “Percent Control” value (PKAC-alpha) was 100% and the “Percent Control” value (FGFR1) was 100%. For the same compound, the “Percent Control” value (STK35) was 100%.
